Laboratory results as given in ChEMBL document CHEMBL4507319 (2021).

Columns and labels:
[1] = biological target: Serine/threonine-protein kinase 35 (Homo sapiens) (UniProt Q8TDR2); experiment: CLIK1(h) Eurofins kinase panel; conditions: Compound concentration 1.0 uM
[2] = biological target: Cyclin-dependent kinase 5/CDK5 activator 1 (Homo sapiens) (UniProt Q00535+Q15078); experiment: CDK5/p35(h) Eurofins kinase panel; format: protein-complex assay; conditions: Compound concentration 1.0 uM
SNU-398 = experiment: Snu398 cell line Proliferation assay; format: functional, Homo sapiens; conditions: time 3 day
[3] = biological target: T1, Testis-specific serine/threonine-protein kinase 1 (Homo sapiens) (UniProt Q9BXA7); experiment: TSSK1(h) Eurofins kinase panel; conditions: Compound concentration 1.0 uM
T1 sequence (whole entry): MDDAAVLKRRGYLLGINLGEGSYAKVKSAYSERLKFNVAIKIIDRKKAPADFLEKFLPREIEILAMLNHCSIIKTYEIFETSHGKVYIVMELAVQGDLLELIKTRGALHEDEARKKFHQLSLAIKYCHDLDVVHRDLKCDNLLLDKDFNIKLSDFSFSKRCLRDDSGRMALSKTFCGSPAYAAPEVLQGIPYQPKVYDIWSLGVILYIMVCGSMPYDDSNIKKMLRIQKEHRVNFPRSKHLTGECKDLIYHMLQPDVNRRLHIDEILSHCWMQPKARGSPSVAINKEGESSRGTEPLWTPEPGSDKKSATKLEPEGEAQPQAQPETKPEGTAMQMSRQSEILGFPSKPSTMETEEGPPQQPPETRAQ

[4] = biological target: Dual specificity mitogen-activated protein kinase kinase 1 (Homo sapiens) (UniProt Q02750); experiment: MEK1(h) Eurofins kinase panel; conditions: Compound concentration 1.0 uM
MDA-MB-231 = experiment: MDA-MB- 231 cell line Proliferation assay; format: functional, Homo sapiens; conditions: time 3 day
[5] = biological target: T2, Serine/threonine-protein kinase ULK1 (Homo sapiens) (UniProt O75385); experiment: ULK1(h) Eurofins kinase panel; conditions: Compound concentration 1.0 uM
T2 sequence (whole entry): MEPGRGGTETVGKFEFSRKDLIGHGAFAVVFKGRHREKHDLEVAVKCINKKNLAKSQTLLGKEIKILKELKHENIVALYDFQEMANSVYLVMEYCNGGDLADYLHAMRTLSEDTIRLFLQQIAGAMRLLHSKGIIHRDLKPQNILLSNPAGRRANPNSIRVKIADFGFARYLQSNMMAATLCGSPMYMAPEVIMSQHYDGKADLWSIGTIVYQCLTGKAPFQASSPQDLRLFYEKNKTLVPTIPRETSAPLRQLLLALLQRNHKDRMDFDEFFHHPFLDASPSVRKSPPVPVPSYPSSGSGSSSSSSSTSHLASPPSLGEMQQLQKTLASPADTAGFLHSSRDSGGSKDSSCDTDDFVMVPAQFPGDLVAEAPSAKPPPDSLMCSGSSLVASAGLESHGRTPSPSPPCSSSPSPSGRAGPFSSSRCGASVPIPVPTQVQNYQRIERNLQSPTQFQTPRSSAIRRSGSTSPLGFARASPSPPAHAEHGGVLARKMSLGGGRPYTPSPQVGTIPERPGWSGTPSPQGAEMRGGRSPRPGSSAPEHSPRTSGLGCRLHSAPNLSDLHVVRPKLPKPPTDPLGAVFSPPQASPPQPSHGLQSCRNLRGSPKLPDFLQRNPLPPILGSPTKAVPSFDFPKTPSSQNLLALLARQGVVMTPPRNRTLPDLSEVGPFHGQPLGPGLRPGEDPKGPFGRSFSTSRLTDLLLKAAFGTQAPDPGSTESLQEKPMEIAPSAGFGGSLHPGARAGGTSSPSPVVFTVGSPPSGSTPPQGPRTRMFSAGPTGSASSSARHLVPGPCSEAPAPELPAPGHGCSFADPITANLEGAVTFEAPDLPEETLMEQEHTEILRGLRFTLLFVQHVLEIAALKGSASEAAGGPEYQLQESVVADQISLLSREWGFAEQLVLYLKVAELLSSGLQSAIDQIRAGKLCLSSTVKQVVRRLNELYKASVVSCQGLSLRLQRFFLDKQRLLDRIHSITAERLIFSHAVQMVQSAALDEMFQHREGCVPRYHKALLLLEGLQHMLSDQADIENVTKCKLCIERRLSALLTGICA

[6] = biological target: Activin receptor type-1-like (Homo sapiens) (UniProt P37023); experiment: ALK1(h) Eurofins kinase panel; conditions: Compound concentration 1.0 uM
[7] = biological target: T3, Inhibitor of nuclear factor kappa-B kinase subunit alpha (Homo sapiens) (UniProt O15111); experiment: IKKalpha(h) Eurofins kinase panel; conditions: Compound concentration 1.0 uM
T3 sequence (whole entry): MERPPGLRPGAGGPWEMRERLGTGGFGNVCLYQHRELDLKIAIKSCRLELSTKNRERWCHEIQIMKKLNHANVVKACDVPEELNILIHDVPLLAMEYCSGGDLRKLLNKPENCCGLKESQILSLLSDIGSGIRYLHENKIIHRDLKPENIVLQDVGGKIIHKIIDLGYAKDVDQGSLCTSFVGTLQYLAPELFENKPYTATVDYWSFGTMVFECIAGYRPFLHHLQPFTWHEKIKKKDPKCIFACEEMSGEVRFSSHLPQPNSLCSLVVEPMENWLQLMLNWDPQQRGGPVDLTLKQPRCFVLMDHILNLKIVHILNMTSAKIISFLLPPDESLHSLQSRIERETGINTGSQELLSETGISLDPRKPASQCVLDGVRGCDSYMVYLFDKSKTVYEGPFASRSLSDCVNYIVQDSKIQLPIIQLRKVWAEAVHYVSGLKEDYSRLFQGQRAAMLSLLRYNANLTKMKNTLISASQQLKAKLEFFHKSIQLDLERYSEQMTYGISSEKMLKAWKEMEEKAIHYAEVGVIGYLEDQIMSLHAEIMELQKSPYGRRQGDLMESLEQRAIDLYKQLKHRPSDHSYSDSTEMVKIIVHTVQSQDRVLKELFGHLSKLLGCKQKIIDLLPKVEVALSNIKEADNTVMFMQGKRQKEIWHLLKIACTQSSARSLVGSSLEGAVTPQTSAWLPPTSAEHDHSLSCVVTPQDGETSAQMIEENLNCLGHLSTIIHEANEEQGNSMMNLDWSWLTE

[8] = biological target: T4, cAMP-dependent protein kinase catalytic subunit PRKX (Homo sapiens) (UniProt P51817); experiment: PrKX(h) Eurofins kinase panel; conditions: Compound concentration 1.0 uM
T4 sequence (whole entry): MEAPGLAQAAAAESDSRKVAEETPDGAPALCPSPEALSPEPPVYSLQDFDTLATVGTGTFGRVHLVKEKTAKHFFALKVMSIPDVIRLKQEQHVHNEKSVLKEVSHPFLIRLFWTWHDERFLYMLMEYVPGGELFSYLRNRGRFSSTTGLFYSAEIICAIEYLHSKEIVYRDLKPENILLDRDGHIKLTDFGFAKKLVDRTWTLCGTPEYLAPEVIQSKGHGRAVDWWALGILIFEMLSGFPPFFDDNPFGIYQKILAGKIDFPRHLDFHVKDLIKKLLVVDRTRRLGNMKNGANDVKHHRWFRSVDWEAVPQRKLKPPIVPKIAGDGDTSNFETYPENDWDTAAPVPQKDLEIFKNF

[9] = biological target: Vascular endothelial growth factor receptor 3 (Homo sapiens) (UniProt P35916); experiment: Flt4(h) Eurofins kinase panel; conditions: Compound concentration 1.0 uM
[10] = biological target: Leukocyte tyrosine kinase receptor (Homo sapiens) (UniProt P29376); experiment: LTK(h) Eurofins kinase panel; conditions: Compound concentration 1.0 uM
[11] = biological target: NT-3 growth factor receptor (Homo sapiens) (UniProt Q16288); experiment: TrkC(h) Eurofins kinase panel; conditions: Compound concentration 1.0 uM
Sequence of NT-3 growth factor receptor (Homo sapiens) (Q16288 32-839 limits assumed): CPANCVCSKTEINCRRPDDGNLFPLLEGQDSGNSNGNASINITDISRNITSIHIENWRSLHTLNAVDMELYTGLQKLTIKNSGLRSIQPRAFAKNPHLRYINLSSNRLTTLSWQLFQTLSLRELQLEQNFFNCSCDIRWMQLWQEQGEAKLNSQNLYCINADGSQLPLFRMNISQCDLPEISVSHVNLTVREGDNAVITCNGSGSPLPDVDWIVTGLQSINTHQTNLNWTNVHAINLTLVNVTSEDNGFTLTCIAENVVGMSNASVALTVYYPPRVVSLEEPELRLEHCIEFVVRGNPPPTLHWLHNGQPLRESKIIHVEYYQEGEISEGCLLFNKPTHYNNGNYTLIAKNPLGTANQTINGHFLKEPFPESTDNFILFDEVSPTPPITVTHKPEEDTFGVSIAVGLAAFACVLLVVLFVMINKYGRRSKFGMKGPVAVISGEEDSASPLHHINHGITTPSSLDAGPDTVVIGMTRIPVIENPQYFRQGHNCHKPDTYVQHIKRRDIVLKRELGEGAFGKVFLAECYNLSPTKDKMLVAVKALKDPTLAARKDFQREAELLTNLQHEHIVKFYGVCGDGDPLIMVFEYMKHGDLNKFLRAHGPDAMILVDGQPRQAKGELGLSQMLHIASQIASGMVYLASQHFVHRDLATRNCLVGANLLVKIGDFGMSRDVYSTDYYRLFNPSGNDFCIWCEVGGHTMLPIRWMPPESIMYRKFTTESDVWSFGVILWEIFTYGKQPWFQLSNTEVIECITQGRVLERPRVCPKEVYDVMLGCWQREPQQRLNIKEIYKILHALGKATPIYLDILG

Sequence of Activin receptor type-1-like (Homo sapiens) (P37023 whole entry): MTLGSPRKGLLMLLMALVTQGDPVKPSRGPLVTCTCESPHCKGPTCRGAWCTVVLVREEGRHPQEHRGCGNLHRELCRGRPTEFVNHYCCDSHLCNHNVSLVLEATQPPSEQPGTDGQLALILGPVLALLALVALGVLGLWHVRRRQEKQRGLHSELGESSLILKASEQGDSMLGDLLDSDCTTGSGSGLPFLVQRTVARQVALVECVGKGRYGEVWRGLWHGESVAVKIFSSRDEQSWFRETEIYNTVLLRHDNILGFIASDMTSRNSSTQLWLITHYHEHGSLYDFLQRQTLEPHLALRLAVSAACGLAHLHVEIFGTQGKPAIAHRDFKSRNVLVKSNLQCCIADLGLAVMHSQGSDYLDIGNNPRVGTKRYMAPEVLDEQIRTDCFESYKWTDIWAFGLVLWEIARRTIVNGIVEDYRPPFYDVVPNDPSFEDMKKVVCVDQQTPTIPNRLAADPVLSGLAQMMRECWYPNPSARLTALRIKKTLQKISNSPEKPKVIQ
Sequence of Dual specificity mitogen-activated protein kinase kinase 1 (Homo sapiens) (Q02750 whole entry): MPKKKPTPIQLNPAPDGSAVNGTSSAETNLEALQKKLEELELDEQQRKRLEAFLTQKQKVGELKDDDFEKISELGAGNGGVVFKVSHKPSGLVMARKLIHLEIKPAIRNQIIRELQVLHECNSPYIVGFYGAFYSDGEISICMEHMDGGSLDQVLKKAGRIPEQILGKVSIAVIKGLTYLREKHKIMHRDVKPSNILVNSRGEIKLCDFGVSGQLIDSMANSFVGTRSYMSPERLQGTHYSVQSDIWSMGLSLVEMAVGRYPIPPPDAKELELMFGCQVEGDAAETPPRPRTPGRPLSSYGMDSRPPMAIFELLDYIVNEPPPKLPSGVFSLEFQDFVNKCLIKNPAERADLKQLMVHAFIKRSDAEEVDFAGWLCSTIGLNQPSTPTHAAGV
Sequence of Serine/threonine-protein kinase 35 (Homo sapiens) (Q8TDR2 whole entry): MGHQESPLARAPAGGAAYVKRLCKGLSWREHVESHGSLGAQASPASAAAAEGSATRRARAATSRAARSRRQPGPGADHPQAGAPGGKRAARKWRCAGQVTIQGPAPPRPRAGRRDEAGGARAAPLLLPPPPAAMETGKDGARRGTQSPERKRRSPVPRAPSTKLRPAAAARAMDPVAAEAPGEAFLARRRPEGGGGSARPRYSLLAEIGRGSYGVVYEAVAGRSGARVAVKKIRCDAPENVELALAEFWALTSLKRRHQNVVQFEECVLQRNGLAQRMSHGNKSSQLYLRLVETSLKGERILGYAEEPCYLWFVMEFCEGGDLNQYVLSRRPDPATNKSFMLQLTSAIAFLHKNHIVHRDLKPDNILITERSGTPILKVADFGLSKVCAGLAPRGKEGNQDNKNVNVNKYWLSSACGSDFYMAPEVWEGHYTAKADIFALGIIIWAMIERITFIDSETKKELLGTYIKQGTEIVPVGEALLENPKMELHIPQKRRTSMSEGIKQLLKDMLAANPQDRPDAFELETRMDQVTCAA
Sequence of Vascular endothelial growth factor receptor 3 (Homo sapiens) (P35916 whole entry): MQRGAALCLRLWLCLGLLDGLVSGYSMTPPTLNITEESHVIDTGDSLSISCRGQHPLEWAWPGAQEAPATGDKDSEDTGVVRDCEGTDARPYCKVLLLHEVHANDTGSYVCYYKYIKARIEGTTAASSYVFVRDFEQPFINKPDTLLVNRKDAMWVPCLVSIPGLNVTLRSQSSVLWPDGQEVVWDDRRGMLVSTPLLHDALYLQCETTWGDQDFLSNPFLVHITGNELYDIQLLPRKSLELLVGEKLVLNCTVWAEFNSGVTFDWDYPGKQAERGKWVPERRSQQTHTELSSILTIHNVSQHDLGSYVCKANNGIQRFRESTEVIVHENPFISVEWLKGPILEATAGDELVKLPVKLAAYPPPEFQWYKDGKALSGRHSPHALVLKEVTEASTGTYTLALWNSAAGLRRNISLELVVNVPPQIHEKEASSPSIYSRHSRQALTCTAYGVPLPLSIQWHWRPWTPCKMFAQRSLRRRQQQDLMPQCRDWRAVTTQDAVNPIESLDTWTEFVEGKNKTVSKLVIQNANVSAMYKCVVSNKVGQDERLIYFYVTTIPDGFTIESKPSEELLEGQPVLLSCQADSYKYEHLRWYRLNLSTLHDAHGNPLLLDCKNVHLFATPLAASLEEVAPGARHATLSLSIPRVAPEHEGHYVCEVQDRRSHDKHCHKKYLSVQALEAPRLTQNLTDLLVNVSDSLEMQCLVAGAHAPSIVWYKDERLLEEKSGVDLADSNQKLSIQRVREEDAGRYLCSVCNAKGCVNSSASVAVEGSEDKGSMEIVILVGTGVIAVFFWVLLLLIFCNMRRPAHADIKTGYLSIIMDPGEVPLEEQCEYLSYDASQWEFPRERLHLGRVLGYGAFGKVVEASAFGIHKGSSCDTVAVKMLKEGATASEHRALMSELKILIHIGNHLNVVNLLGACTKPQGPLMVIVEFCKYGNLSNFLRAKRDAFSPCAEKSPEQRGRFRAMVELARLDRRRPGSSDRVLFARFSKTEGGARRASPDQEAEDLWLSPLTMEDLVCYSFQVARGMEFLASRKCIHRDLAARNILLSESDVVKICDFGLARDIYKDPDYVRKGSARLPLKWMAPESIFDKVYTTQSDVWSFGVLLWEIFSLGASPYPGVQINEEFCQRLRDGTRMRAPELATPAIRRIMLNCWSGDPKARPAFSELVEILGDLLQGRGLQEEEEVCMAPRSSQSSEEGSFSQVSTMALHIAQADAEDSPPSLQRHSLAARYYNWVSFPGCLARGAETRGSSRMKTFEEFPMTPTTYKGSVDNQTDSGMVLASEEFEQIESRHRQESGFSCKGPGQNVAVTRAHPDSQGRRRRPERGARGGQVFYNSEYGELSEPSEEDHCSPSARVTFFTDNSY
Sequence of Cyclin-dependent kinase 5/CDK5 activator 1 (Homo sapiens) (Q00535 whole entry): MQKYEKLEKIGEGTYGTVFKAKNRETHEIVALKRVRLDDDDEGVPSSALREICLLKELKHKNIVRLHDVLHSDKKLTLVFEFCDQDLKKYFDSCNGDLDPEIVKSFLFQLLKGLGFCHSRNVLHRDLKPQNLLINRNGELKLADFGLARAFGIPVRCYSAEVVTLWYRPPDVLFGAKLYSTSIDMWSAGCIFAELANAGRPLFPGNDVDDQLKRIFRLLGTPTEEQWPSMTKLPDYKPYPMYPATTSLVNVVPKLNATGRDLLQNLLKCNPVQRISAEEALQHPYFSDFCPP
Sequence of Cyclin-dependent kinase 5/CDK5 activator 1 (Homo sapiens) (Q15078 99-307 partner limits assumed): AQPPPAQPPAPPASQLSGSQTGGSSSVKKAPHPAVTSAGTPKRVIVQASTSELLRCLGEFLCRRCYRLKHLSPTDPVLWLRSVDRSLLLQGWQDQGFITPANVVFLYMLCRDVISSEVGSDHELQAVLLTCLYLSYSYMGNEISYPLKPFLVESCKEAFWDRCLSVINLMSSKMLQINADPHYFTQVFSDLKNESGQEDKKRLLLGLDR
Sequence of Leukocyte tyrosine kinase receptor (Homo sapiens) (P29376 whole entry): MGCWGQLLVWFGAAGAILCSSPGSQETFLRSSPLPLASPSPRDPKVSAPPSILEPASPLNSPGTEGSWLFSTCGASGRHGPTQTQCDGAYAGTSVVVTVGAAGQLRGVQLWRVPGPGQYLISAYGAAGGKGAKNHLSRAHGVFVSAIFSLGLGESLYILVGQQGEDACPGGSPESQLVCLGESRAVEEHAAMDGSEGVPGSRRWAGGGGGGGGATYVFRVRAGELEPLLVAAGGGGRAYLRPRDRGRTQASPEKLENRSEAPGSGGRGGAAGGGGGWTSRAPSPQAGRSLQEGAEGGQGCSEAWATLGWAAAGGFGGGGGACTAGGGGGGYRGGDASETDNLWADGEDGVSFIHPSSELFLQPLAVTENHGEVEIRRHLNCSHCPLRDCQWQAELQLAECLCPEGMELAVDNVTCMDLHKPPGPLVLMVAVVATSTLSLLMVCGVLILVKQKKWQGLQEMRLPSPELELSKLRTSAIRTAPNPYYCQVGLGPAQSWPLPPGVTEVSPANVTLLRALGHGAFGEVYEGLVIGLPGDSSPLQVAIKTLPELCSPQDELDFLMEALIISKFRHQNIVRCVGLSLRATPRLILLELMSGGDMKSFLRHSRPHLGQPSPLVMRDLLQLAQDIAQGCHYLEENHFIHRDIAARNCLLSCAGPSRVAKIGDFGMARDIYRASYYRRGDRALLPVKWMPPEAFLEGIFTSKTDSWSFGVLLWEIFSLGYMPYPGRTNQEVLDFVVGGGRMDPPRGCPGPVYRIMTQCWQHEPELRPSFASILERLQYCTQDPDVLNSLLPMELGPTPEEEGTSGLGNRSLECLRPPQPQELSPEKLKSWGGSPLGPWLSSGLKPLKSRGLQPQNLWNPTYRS

## CCc1ccccc1C(=O)Nc1n[nH]c2c(C)c(F)c(C3C(C#N)=C(C)N(C)C(C)=C3C#N)cc12 [BAY-3827]
[1]
  % residual kinase activity: 80%
[2]
  % residual kinase activity: 99%
SNU-398
  Cell Proliferation IC50: 7.3 µM
[3]
  % residual kinase activity: 84%
[4]
  % residual kinase activity: 90%
MDA-MB-231
  Cell Proliferation IC50: >30 µM
[5]
  % residual kinase activity: 26%
[6]
  % residual kinase activity: 138%
[7]
  % residual kinase activity: 107%
[8]
  % residual kinase activity: 94%
[9]
  % residual kinase activity: 73%
[10]
  % residual kinase activity: 100%
[11]
  % residual kinase activity: 133%
